# Source: patent publication US20100298141A1, “SUBSTITUTED PYRIDINE N-OXIDE HERBICIDES” (E. I. DU PONT DE NEMOURS AND COMPANY, priority 2007, published 2010)
# Experiments:
# giant foxtail [1] = assay: Test A pre-/postemergence greenhouse test; format: in vivo, Setaria faberi; conditions: for Foxtail, Giant plant response rating: 0 to 100 scale
# In short: (§1)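 Seeds sown in a loam soil–sand blend got a preemergence directed soil spray of compound in a non-phytotoxic solvent mixture containing surfactant. Postemergence sprays of the same formulation went at the same time onto plants 2–10 cm tall at the one- to two-leaf stage. Injury was scored visually against untreated controls after about ten days in the greenhouse.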
# redroot pigweed = assay: Test A pre-/postemergence greenhouse test; format: in vivo, Amaranthus retroflexus; conditions: for Pigweed plant response rating: 0 to 100 scale
# In short: as §1
# velvetleaf [2] = assay: Test A pre-/postemergence greenhouse test; format: in vivo, Abutilon theophrasti; conditions: for Velvetleaf plant response rating: 0 to 100 scale
# In short: as §1
# wheat = assay: Test A pre-/postemergence greenhouse test; format: in vivo, Triticum aestivum; conditions: for Wheat plant response rating: 0 to 100 scale
# In short: as §1
# corn = assay: Test A pre-/postemergence greenhouse test; format: in vivo, Zea mays; conditions: for Corn plant response rating: 0 to 100 scale
# In short: as §1
# wild oat = assay: Test C pre-/postemergence test; format: in vivo, Avena fatua; conditions: for Plant response rating, Oat, Wild: scale 0 to 100, 0 no effect, 100 complete control
# In short: (§2)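 Seeds were planted and treated preemergence with test chemical in a non-phytotoxic solvent mixture containing surfactant. Postemergence applications of the same formulation went onto plants 2 to 18 cm tall (1- to 4-leaf stage). A dash marks no test result.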
# bermudagrass = assay: Test C pre-/postemergence test; format: in vivo, Cynodon dactylon; conditions: for Plant response rating, Bermudagrass: scale 0 to 100, 0 no effect, 100 complete control
# In short: as §2
# Surinam grass = assay: Test C pre-/postemergence test; format: in vivo, Brachiaria decumbens; conditions: for Surinam Grass plant response rating: preemergence, scale 0 (no effect) to 100 (complete control); for Plant response rating, Surinam Grass: scale 0 to 100, 0 no effect, 100 complete control
# In short: as §2
# giant foxtail [3] = assay: Test C pre-/postemergence test; format: in vivo, Setaria faberii; conditions: for Plant response rating, Foxtail, Giant: scale 0 to 100, 0 no effect, 100 complete control
# In short: as §2
# Goosegrass = assay: Test C pre-/postemergence test; format: in vivo, Eleusin indica; conditions: for Plant response rating, Goosegrass: scale 0 to 100, 0 no effect, 100 complete control
# In short: as §2
# johnsongrass = assay: Test C pre-/postemergence test; format: in vivo, Sorghum halepense; conditions: for Plant response rating, Johnsongrass: scale 0 to 100, 0 no effect, 100 complete control
# In short: as §2
# lambsquarters = assay: Test C pre-/postemergence test; format: in vivo, Chenopodium album; conditions: for Plant response rating, Lambsquarters: scale 0 to 100, 0 no effect, 100 complete control
# In short: as §2
# eastern black nightshade = assay: Test C pre-/postemergence test; format: in vivo, Solanum ptycanthum
# In short: as §2
# common ragweed = assay: Test C pre-/postemergence test; format: in vivo, Ambrosia elation; conditions: for Plant response rating, Ragweed: scale 0 to 100, 0 no effect, 100 complete control
# In short: as §2
# velvetleaf [4] = assay: Test C pre-/postemergence test; format: in vivo, Abutilon theophrasti; conditions: Postemergence; for Plant response rating, Velvetleaf: scale 0 to 100, 0 no effect, 100 complete control
# In short: as §2
# rice = assay: Test C flooded paddy test; format: in vivo, Oryza sativa; conditions: Flood
# In short: (§3)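 In-water treatment: compound dosed into 3 cm flood over soil, water level unchanged throughout. Controls run alongside; visual assessment at day 13–15.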
# barnyardgrass = assay: Test C flooded paddy test; format: in vivo, Echinochloa crus-galli; conditions: Flood
# In short: as §3
# [5] = Postemergence, 125 g ai/ha, 0 is no effect, 100 is complete control
# [6] = Postemergence, 500 g ai/ha, 0 is no effect, 100 is complete control
# [7] = Preemergence, 125 g ai/ha, 0 no effect, 100 complete control
# [8] = Preemergence, 500 g ai/ha, 0 to 100 scale where 0 is no effect and 100 is complete control
# [9] = 31 g ai/ha, Preemergence, scale 0 to 100
# [10] = 62 g ai/ha, preemergence, scale 0 (no effect) to 100 (complete control)
# [11] = preemergence, 125 g ai/ha, scale 0 (no effect) to 100 (complete control)
# [12] = 31 g ai/ha, scale 0 to 100 (0 no effect, 100 complete control)
# [13] = 62 g ai/ha, scale 0 to 100, 0 no effect, 100 complete control, 13 to 15 days
# [14] = 125 g ai/ha, scale 0 to 100, 0 no effect, 100 complete control, 13 to 15 days
# [15] = 250 g ai/ha, scale 0 to 100 (0 no effect, 100 complete control)
smiles,measurement,setting,value
Cc1cc[n+]([O-])c(S(=O)(=O)Cc2c(C(F)(F)F)nn(C)c2OC(F)F)c1 [Compound 2],"Foxtail, Giant plant response rating",giant foxtail [1]; [5],80
same,"Foxtail, Giant plant response rating",giant foxtail [1]; [6],90
same,"Foxtail, Giant plant response rating",giant foxtail [1]; [7],100
same,"Plant response rating, Foxtail, Giant",giant foxtail [1]; [8],100
same,Pigweed plant response rating,redroot pigweed; [5],100
same,Pigweed plant response rating,redroot pigweed; [6],100
same,Pigweed plant response rating,redroot pigweed; [7],100
same,"Plant response rating, Pigweed",redroot pigweed; [8],100
same,Velvetleaf plant response rating,velvetleaf [2]; [5],60
same,Velvetleaf plant response rating,velvetleaf [2]; [6],80
same,Velvetleaf plant response rating,velvetleaf [2]; [7],70
same,"Plant response rating, Velvetleaf",velvetleaf [2]; [8],90
same,Wheat plant response rating,wheat; [5],60
same,Wheat plant response rating,wheat; [6],70
same,Wheat plant response rating,wheat; [7],40
same,"Plant response rating, Wheat",wheat; [8],70
same,Corn plant response rating,corn; [5],60
same,Corn plant response rating,corn; [6],60
same,Corn plant response rating,corn; [7],0
same,"Plant response rating, Corn",corn; [8],40
same,"Oat, Wild plant response rating",wild oat; [9],50
same,"Oat, Wild plant response rating",wild oat; [10],65
same,"Plant response rating (0 to 100), Oat, Wild","wild oat; Postemergence, 31 g ai/ha",0
same,"Plant response rating, Oat, Wild","wild oat; Postemergence, 62 g ai/ha",0
same,"Plant response rating, Oat, Wild","wild oat; Postemergence, 125 g ai/ha",0
same,"Plant response rating, Oat, Wild","wild oat; Postemergence, 250 g ai/ha",0
same,"Plant response rating (0 to 100), Oat, Wild","wild oat; Preemergence, 250 g ai/ha",95
same,"Oat, Wild plant response rating",wild oat; [11],70
same,Bermudagrass plant response rating,bermudagrass; [9],100
same,Bermudagrass plant response rating,bermudagrass; [10],100
same,"Plant response rating (0 to 100), Bermudagrass","bermudagrass; Postemergence, 31 g ai/ha",0
same,"Plant response rating, Bermudagrass","bermudagrass; Postemergence, 62 g ai/ha",0
same,"Plant response rating, Bermudagrass","bermudagrass; Postemergence, 125 g ai/ha",0
same,"Plant response rating, Bermudagrass","bermudagrass; Postemergence, 250 g ai/ha",40
same,"Plant response rating (0 to 100), Bermudagrass","bermudagrass; Preemergence, 250 g ai/ha",100
same,Bermudagrass plant response rating,bermudagrass; [11],100
same,Surinam Grass plant response rating,Surinam grass; 62 g ai/ha,100
same,"Plant response rating (0 to 100), Surinam Grass","Surinam grass; Postemergence, 31 g ai/ha",0
same,"Plant response rating (0 to 100), Surinam Grass","Surinam grass; Postemergence, 62 g ai/ha",0
same,"Plant response rating, Surinam Grass","Surinam grass; Postemergence, 125 g ai/ha",0
same,"Plant response rating, Surinam Grass","Surinam grass; Postemergence, 250 g ai/ha",0
same,"Plant response rating (0 to 100), Surinam Grass","Surinam grass; Preemergence, 250 g ai/ha",100
same,Surinam Grass plant response rating,Surinam grass; 125 g ai/ha,100
same,"Foxtail, Giant plant response rating",giant foxtail [3]; [9],65
same,"Foxtail, Giant plant response rating",giant foxtail [3]; [10],90
same,"Plant response rating (0 to 100), Foxtail, Giant","giant foxtail [3]; Postemergence, 31 g ai/ha",0
same,"Plant response rating, Foxtail, Giant","giant foxtail [3]; Postemergence, 62 g ai/ha",0
same,"Plant response rating, Foxtail, Giant","giant foxtail [3]; Postemergence, 125 g ai/ha",0
same,"Plant response rating, Foxtail, Giant","giant foxtail [3]; Postemergence, 250 g ai/ha",50
same,"Plant response rating (0 to 100), Foxtail, Giant","giant foxtail [3]; Preemergence, 250 g ai/ha",100
same,"Foxtail, Giant plant response rating",giant foxtail [3]; [11],100
same,Goosegrass plant response rating,Goosegrass; [9],80
same,Goosegrass plant response rating,Goosegrass; [10],100
same,"Plant response rating (0 to 100), Goosegrass","Goosegrass; Postemergence, 31 g ai/ha",0
same,"Plant response rating, Goosegrass","Goosegrass; Postemergence, 62 g ai/ha",0
same,"Plant response rating, Goosegrass","Goosegrass; Postemergence, 125 g ai/ha",0
same,"Plant response rating, Goosegrass","Goosegrass; Postemergence, 250 g ai/ha",0
same,"Plant response rating (0 to 100), Goosegrass","Goosegrass; Preemergence, 250 g ai/ha",100
same,Goosegrass plant response rating,Goosegrass; [11],100
same,Johnsongrass plant response rating,johnsongrass; [9],30
same,Johnsongrass plant response rating,johnsongrass; [10],95
same,"Plant response rating (0 to 100), Johnsongrass","johnsongrass; Postemergence, 31 g ai/ha",0
same,"Plant response rating, Johnsongrass","johnsongrass; Postemergence, 62 g ai/ha",0
same,"Plant response rating, Johnsongrass","johnsongrass; Postemergence, 125 g ai/ha",0
same,"Plant response rating, Johnsongrass","johnsongrass; Postemergence, 250 g ai/ha",0
same,"Plant response rating (0 to 100), Johnsongrass","johnsongrass; Preemergence, 250 g ai/ha",100
same,Johnsongrass plant response rating,johnsongrass; [11],100
same,Lambsquarters plant response rating,lambsquarters; [9],0
same,Lambsquarters plant response rating,lambsquarters; [10],70
same,"Plant response rating (0 to 100), Lambsquarters","lambsquarters; Postemergence, 31 g ai/ha",0
same,"Plant response rating, Lambsquarters","lambsquarters; Postemergence, 62 g ai/ha",0
same,"Plant response rating, Lambsquarters","lambsquarters; Postemergence, 125 g ai/ha",0
same,"Plant response rating, Lambsquarters","lambsquarters; Postemergence, 250 g ai/ha",0
same,"Plant response rating (0 to 100), Lambsquarters","lambsquarters; Preemergence, 250 g ai/ha",100
same,Lambsquarters plant response rating,lambsquarters; [11],100
same,Nightshade plant response rating,eastern black nightshade; [9],98
same,Nightshade plant response rating,eastern black nightshade; [10],100
same,"Plant response rating (0 to 100), Nightshade","eastern black nightshade; Preemergence, 250 g ai/ha",100
same,Nightshade plant response rating,eastern black nightshade; [11],100
same,Ragweed plant response rating,common ragweed; [9],20
same,Ragweed plant response rating,common ragweed; [10],98
same,"Plant response rating (0 to 100), Ragweed","common ragweed; Postemergence, 31 g ai/ha",0
same,"Plant response rating (0 to 100), Ragweed","common ragweed; Postemergence, 62 g ai/ha",0
same,"Plant response rating, Ragweed","common ragweed; Postemergence, 125 g ai/ha",5
same,"Plant response rating, Ragweed","common ragweed; Postemergence, 250 g ai/ha",10
same,"Plant response rating (0 to 100), Ragweed","common ragweed; Preemergence, 250 g ai/ha",100
same,Ragweed plant response rating,common ragweed; [11],100
same,"Plant response rating (0 to 100), Velvetleaf",velvetleaf [4]; 31 g ai/ha,0
same,"Plant response rating (0 to 100), Velvetleaf",velvetleaf [4]; 62 g ai/ha,0
same,"Plant response rating, Velvetleaf",velvetleaf [4]; 125 g ai/ha,0
same,"Plant response rating, Velvetleaf",velvetleaf [4]; 250 g ai/ha,5
same,"Plant response rating, Rice",rice; [12],0
same,"Plant response rating, Rice",rice; [13],10
same,"Plant response rating, Rice",rice; [14],45
same,"Plant response rating, Rice",rice; [15],70
same,"Plant response rating, Barnyardgrass",barnyardgrass; [12],0
same,"Plant response rating, Barnyardgrass",barnyardgrass; [13],0
same,"Plant response rating, Barnyardgrass",barnyardgrass; [14],55
same,"Plant response rating, Barnyardgrass",barnyardgrass; [15],85
